Test results published in publication PMC5218480 (PLoS ONE, 2017).

Tested on: MV-4-11 cells
Test: Gene expression microarray analysis (Affymetrix PrimeView) and GSEA
Format: cell-based, human
Parameters: RFU PODN (11730768_x_at) / Fold change /veh PODN (11730768_x_at) / RFU LINC00158 (11744669_a_at) / Fold change /veh LINC00158 (11744669_a_at) / RFU DUSP10 (11751237_a_at) / Fold change /veh DUSP10 (11751237_a_at) / RFU ID3 (11757404_x_at) / Fold change /veh ID3 (11757404_x_at) / RFU PLEKHG5 (11737974_s_at) / Fold change /veh PLEKHG5 (11737974_s_at) / RFU LRRC4B (11730491_at) / Fold change /veh LRRC4B (11730491_at) / RFU GIMAP4 (11747438_a_at) / Fold change /veh GIMAP4 (11747438_a_at) / RFU KRT8 (11758183_x_at) / Fold change /veh KRT8 (11758183_x_at) / RFU CNN1 (11734310_a_at) / Fold change /veh CNN1 (11734310_a_at) / RFU VPS37D (11726825_at) / Fold change /veh VPS37D (11726825_at) / RFU C10orf10 (11716522_x_at) / Fold change /veh C10orf10 (11716522_x_at) / RFU KIR2DL2 /// KIR2DL4 /// KIR2DL5A /// KIR2DL5B /// KIR2DS1 /// KIR2DS2 /// KIR2DS3 /// KIR2DS4 /// KIR3DL3 /// KIR3DL3 /// KIR3DS1 (11738374_at) / Fold change /veh KIR2DL2 /// KIR2DL4 /// KIR2DL5A /// KIR2DL5B /// KIR2DS1 /// KIR2DS2 /// KIR2DS3 /// KIR2DS4 /// KIR3DL3 /// KIR3DL3 /// KIR3DS1 (11738374_at) / RFU C1QL1 (11718748_at) / Fold change /veh C1QL1 (11718748_at) / RFU TMPRSS4 (11747572_a_at) / Fold change /veh TMPRSS4 (11747572_a_at) / RFU HAMP (11756126_x_at) / Fold change /veh HAMP (11756126_x_at) / RFU RNFT2 (11725882_a_at) / Fold change /veh RNFT2 (11725882_a_at) / RFU NR4A2 (11747474_a_at) / Fold change /veh NR4A2 (11747474_a_at) / RFU ABCC12 (11746883_a_at) / Fold change /veh ABCC12 (11746883_a_at) / RFU TMEM136 (11760407_x_at) / Fold change /veh TMEM136 (11760407_x_at) / RFU CLDN22 /// WWC2 (11732394_at) / Fold change /veh CLDN22 /// WWC2 (11732394_at) / RFU HLA-DPB1 (11760878_x_at) / Fold change /veh HLA-DPB1 (11760878_x_at) / RFU SPINT1 (11716480_a_at) / Fold change /veh SPINT1 (11716480_a_at) / RFU GAP43 (11754022_s_at) / Fold change /veh GAP43 (11754022_s_at) / RFU A4GNT (11735810_at) / Fold change /veh A4GNT (11735810_at) / RFU PRB3 (11715151_x_at) / Fold change /veh PRB3 (11715151_x_at) / RFU TUBB4B (11761932_at) / Fold change /veh TUBB4B (11761932_at) / RFU CAPN14 (11732068_a_at) / Fold change /veh CAPN14 (11732068_a_at) / RFU TMCC2 (11721928_a_at) / Fold change /veh TMCC2 (11721928_a_at) / RFU IRGQ (11745062_a_at) / Fold change /veh IRGQ (11745062_a_at) / RFU FAM174B (11720279_a_at) / Fold change /veh FAM174B (11720279_a_at) / RFU TMPRSS4 (11748680_a_at) / Fold change /veh TMPRSS4 (11748680_a_at) / RFU FAM212B (11763350_a_at) / Fold change /veh FAM212B (11763350_a_at) / RFU PLEKHG5 (11743358_a_at) / Fold change /veh PLEKHG5 (11743358_a_at) / RFU ZSCAN30 (11745921_a_at) / Fold change /veh ZSCAN30 (11745921_a_at) / RFU CMKLR1 (11741424_a_at) / Fold change /veh CMKLR1 (11741424_a_at) / RFU LOC101060620 /// MAPK8IP1 (11723275_at) / Fold change /veh LOC101060620 /// MAPK8IP1 (11723275_at) / RFU SPTSSB (11747773_x_at) / Fold change /veh SPTSSB (11747773_x_at) / RFU PRSS12 (11739890_at) / Fold change /veh PRSS12 (11739890_at) / RFU BIN1 (11741810_x_at) / Fold change /veh BIN1 (11741810_x_at) / RFU WNT11 (11732464_a_at) / Fold change /veh WNT11 (11732464_a_at) / RFU C10orf10 (11716521_a_at) / Fold change /veh C10orf10 (11716521_a_at) / RFU C5orf56 (11738089_at) / Fold change /veh C5orf56 (11738089_at) / RFU CYB561 (11721691_x_at) / Fold change /veh CYB561 (11721691_x_at) / RFU ANKRD19P (11752326_a_at) / Fold change /veh ANKRD19P (11752326_a_at) / RFU OR2T12 /// OR2T33 /// OR2T8 (11738714_s_at) / Fold change /veh OR2T12 /// OR2T33 /// OR2T8 (11738714_s_at) / RFU VCAN (11748164_a_at) / Fold change /veh VCAN (11748164_a_at) / RFU JSRP1 (11732532_at) / Fold change /veh JSRP1 (11732532_at) / RFU KRTAP10-11 (11738290_x_at) / Fold change /veh KRTAP10-11 (11738290_x_at) / RFU MYO3A (11730013_a_at) / Fold change /veh MYO3A (11730013_a_at) / RFU EBF3 (11725865_a_at) / Fold change /veh EBF3 (11725865_a_at) / RFU CAMK2N1 (11719241_x_at) / Fold change /veh CAMK2N1 (11719241_x_at) / RFU C5orf56 (11738088_a_at) / Fold change /veh C5orf56 (11738088_a_at) / RFU OLFML3 (11715873_a_at) / Fold change /veh OLFML3 (11715873_a_at) / RFU LOC100653217 /// NTM (11731650_a_at) / Fold change /veh LOC100653217 /// NTM (11731650_a_at) / RFU MAPK11 (11762145_a_at) / Fold change /veh MAPK11 (11762145_a_at) / RFU FIZ1 (11724087_x_at) / Fold change /veh FIZ1 (11724087_x_at) / RFU OASL (11726364_x_at) / Fold change /veh OASL (11726364_x_at) / RFU SOX15 (11748057_x_at) / Fold change /veh SOX15 (11748057_x_at) / RFU CD79A (11719716_a_at) / Fold change /veh CD79A (11719716_a_at) / RFU HIST1H1D (11736915_at) / Fold change /veh HIST1H1D (11736915_at) / RFU CASKIN2 (11723855_a_at) / Fold change /veh CASKIN2 (11723855_a_at) / RFU LOC730098 (11760151_x_at) / Fold change /veh LOC730098 (11760151_x_at) / RFU OR4N2 (11742367_at) / Fold change /veh OR4N2 (11742367_at) / RFU PRRT2 (11749266_a_at) / Fold change /veh PRRT2 (11749266_a_at) / RFU SNX32 (11753110_a_at) / Fold change /veh SNX32 (11753110_a_at) / RFU CDHR5 (11726645_a_at) / Fold change /veh CDHR5 (11726645_a_at) / RFU RCAN1 (11760418_a_at) / Fold change /veh RCAN1 (11760418_a_at) / RFU FAM167A (11723789_a_at) / Fold change /veh FAM167A (11723789_a_at) / RFU FAM26E (11764081_at) / Fold change /veh FAM26E (11764081_at) / RFU ISYNA1 (11749810_s_at) / Fold change /veh ISYNA1 (11749810_s_at) / RFU ACY1 (11761880_at) / Fold change /veh ACY1 (11761880_at) / RFU 11764098_at / Fold change /veh 11764098_at / RFU SAMD14 (11745864_x_at) / Fold change /veh SAMD14 (11745864_x_at) / RFU NPB (11741838_a_at) / Fold change /veh NPB (11741838_a_at) / RFU TMPRSS6 (11731388_a_at) / Fold change /veh TMPRSS6 (11731388_a_at) / RFU KRTAP10-2 (11738614_at) / Fold change /veh KRTAP10-2 (11738614_at) / RFU ARHGAP8 /// PRR5-ARHGAP8 (11727945_x_at) / Fold change /veh ARHGAP8 /// PRR5-ARHGAP8 (11727945_x_at) / RFU KRTAP5-7 /// NADSYN1 (11734609_at) / Fold change /veh KRTAP5-7 /// NADSYN1 (11734609_at) / RFU RASL12 (11751679_a_at) / Fold change /veh RASL12 (11751679_a_at) / RFU CDKN2B (11736163_a_at) / Fold change /veh CDKN2B (11736163_a_at) / RFU PRF1 (11729649_at) / Fold change /veh PRF1 (11729649_at) / RFU, ZNF638 /// ZNF638-IT1 / Fold change vs veh, ZNF638 /// ZNF638-IT1 / RFU, PANK3 / Fold change vs veh, PANK3 / RFU, SH3YL1 / Fold change vs veh, SH3YL1 / RFU, ZEB2 / Fold change vs veh, ZEB2 / RFU, NRIP1 / Fold change vs veh, NRIP1 / RFU, PTTG1IP / Fold change vs veh, PTTG1IP / RFU, CAPN2 / Fold change vs veh, CAPN2 / RFU, MED14 / Fold change vs veh, MED14 / RFU, SNORA58 / Fold change vs veh, SNORA58 / RFU, C1orf63 / Fold change vs veh, C1orf63 / RFU, LRRFIP1 / Fold change vs veh, LRRFIP1 / RFU, NDUFAF7 / Fold change vs veh, NDUFAF7 / RFU, SLC12A2 / Fold change vs veh, SLC12A2 / RFU, IBTK / Fold change vs veh, IBTK / RFU, ESF1 / Fold change vs veh, ESF1 / Fold change vs veh, TMEM50B / RFU, TAOK1 / Fold change vs veh, TAOK1 / RFU, ACBD3 / Fold change vs veh, ACBD3 / RFU, TMA16 / Fold change vs veh, TMA16 / RFU, RWDD3 / Fold change vs veh, RWDD3 / RFU, BCAT1 / Fold change vs veh, BCAT1 / RFU, EDEM3 / Fold change vs veh, EDEM3 / RFU, TMEM33 / Fold change vs veh, TMEM33 / RFU, WDR75 / Fold change vs veh, WDR75 / RFU, AHCTF1 / Fold change vs veh, AHCTF1 / RFU, TFRC / Fold change vs veh, TFRC / RFU, ZDHHC17 / Fold change vs veh, ZDHHC17 / RFU, NOM1 / Fold change vs veh, NOM1 / RFU, ARL8B / Fold change vs veh, ARL8B / RFU, ZBTB11 / Fold change vs veh, ZBTB11 / RFU, TAMM41 / Fold change vs veh, TAMM41 / RFU, KIAA1704 /// LOC100996395 / Fold change vs veh, KIAA1704 /// LOC100996395 / RFU, ING1 / Fold change vs veh, ING1 / RFU, TRMT61B / Fold change vs veh, TRMT61B / RFU, FUBP3 / Fold change vs veh, FUBP3 / RFU, TP53 / Fold change vs veh, TP53 / RFU, TNKS2 / Fold change vs veh, TNKS2 / RFU, ZFP14 / Fold change vs veh, ZFP14 / RFU, ACTR2 / Fold change vs veh, ACTR2 / RFU, PPP3R1 / Fold change vs veh, PPP3R1 / RFU, PIK3R1 / Fold change vs veh, PIK3R1 / RFU, HNRNPA1 / Fold change vs veh, HNRNPA1 / RFU, RNF170 / Fold change vs veh, RNF170 / RFU, ZNF28 / Fold change vs veh, ZNF28 / RFU, RNGTT / Fold change vs veh, RNGTT / RFU, OGT / Fold change vs veh, OGT / RFU, BRD1 / Fold change vs veh, BRD1 / RFU, MARS / Fold change vs veh, MARS / RFU, ZNF655 / Fold change vs veh, ZNF655 / RFU, FAHD1 / Fold change vs veh, FAHD1 / RFU, BDP1 / Fold change vs veh, BDP1 / RFU, LRRCC1 / Fold change vs veh, LRRCC1 / RFU, ARID1A / Fold change vs veh, ARID1A / RFU, ZNF146 / Fold change vs veh, ZNF146 / RFU, ZNF330 / Fold change vs veh, ZNF330 / RFU, GPN3 / Fold change vs veh, GPN3 / RFU, C9orf123 / Fold change vs veh, C9orf123 / RFU, N4BP2L2 / Fold change vs veh, N4BP2L2 / RFU, ARFIP1 / Fold change vs veh, ARFIP1 / RFU, FAM179B / Fold change vs veh, FAM179B / RFU, BCL10 / Fold change vs veh, BCL10 / RFU, UHRF1BP1L / Fold change vs veh, UHRF1BP1L / RFU, BET1 / Fold change vs veh, BET1 / RFU, CNOT2 / Fold change vs veh, CNOT2 / RFU, ZNF268 / Fold change vs veh, ZNF268 / Fold change vs veh, ZNF507 / RFU, DGCR2 / Fold change vs veh, DGCR2 / RFU, WDSUB1 / Fold change vs veh, WDSUB1 / Fold change vs veh, HSP90B1 /// MIR3652 / RFU, ADSS / Fold change vs veh, ADSS / RFU, GK / Fold change vs veh, GK / RFU, ZNF148 / Fold change vs veh, ZNF148 / RFU, TAF9 / Fold change vs veh, TAF9 / RFU, SLC1A5 / Fold change vs veh, SLC1A5 / RFU, SLMO2 / Fold change vs veh, SLMO2 / RFU, ABCC4 / Fold change vs veh, ABCC4 / RFU, LOC101060439 /// RAP1B / Fold change vs veh, LOC101060439 /// RAP1B / RFU, RFX7 / Fold change vs veh, RFX7 / RFU, GTPBP10 / Fold change vs veh, GTPBP10 / RFU, CNEP1R1 / Fold change vs veh, CNEP1R1 / RFU, BIVM-ERCC5 /// ERCC5 / Fold change vs veh, BIVM-ERCC5 /// ERCC5 / RFU, ILF3 / Fold change vs veh, ILF3 / RFU 11762660_at / Fold change /veh 11762660_at / RFU VCAN (11757783_s_at) / Fold change /veh VCAN (11757783_s_at) / RFU DDX43 (11728927_at) / Fold change /veh DDX43 (11728927_at) / RFU KRT8 (11758188_x_at) / Fold change /veh KRT8 (11758188_x_at) / RFU NKD1 (11759106_at) / Fold change /veh NKD1 (11759106_at) / RFU SRD5A1 (11742802_a_at) / Fold change /veh SRD5A1 (11742802_a_at) / RFU TPSAB1 /// TPSB2 (11721975_s_at) / Fold change /veh TPSAB1 /// TPSB2 (11721975_s_at) / RFU GSTM3 (11746129_a_at) / Fold change /veh GSTM3 (11746129_a_at) / RFU IL23R (11737362_x_at) / Fold change /veh IL23R (11737362_x_at) / RFU TMEM51 (11727254_a_at) / Fold change /veh TMEM51 (11727254_a_at) / RFU PIWIL2 (11732686_x_at) / Fold change /veh PIWIL2 (11732686_x_at) / RFU ORM1 (11744905_x_at) / Fold change /veh ORM1 (11744905_x_at) / RFU CCDC152 (11743942_at) / Fold change /veh CCDC152 (11743942_at) / RFU ECM1 (11717891_a_at) / Fold change /veh ECM1 (11717891_a_at) / RFU IL23R (11748794_a_at) / Fold change /veh IL23R (11748794_a_at) / RFU TNFAIP8L3 (11732012_x_at) / Fold change /veh TNFAIP8L3 (11732012_x_at) / RFU MBOAT4 (11741988_at) / Fold change /veh MBOAT4 (11741988_at) / RFU 11764193_at / Fold change /veh 11764193_at / RFU TMEM53 (11763286_at) / Fold change /veh TMEM53 (11763286_at) / RFU MAGEB2 (11727129_at) / Fold change /veh MAGEB2 (11727129_at) / RFU TMEM200A (11744735_a_at) / Fold change /veh TMEM200A (11744735_a_at) / RFU CCDC152 (11751479_a_at) / Fold change /veh CCDC152 (11751479_a_at) / RFU FAM211A (11726209_a_at) / Fold change /veh FAM211A (11726209_a_at) / RFU RGS16 (11746705_a_at) / Fold change /veh RGS16 (11746705_a_at) / RFU VCAN (11755009_s_at) / Fold change /veh VCAN (11755009_s_at) / RFU RHOB (11743442_s_at) / Fold change /veh RHOB (11743442_s_at) / RFU RGS16 (11720943_a_at) / Fold change /veh RGS16 (11720943_a_at) / RFU RGS16 (11720944_at) / Fold change /veh RGS16 (11720944_at) / RFU, VPS4B / Fold change vs veh, VPS4B / RFU, CREB1 / Fold change vs veh, CREB1 / RFU, DNAJC13 / Fold change vs veh, DNAJC13 / RFU, GNAQ / Fold change vs veh, GNAQ / RFU, CDK5R1 / Fold change vs veh, CDK5R1 / RFU, ZRANB3 / Fold change vs veh, ZRANB3 / RFU, CUL4A / Fold change vs veh, CUL4A / RFU, CCNY / Fold change vs veh, CCNY / RFU, UFL1 / Fold change vs veh, UFL1 / RFU, COG3 / Fold change vs veh, COG3 / RFU, DIAPH2 / Fold change vs veh, DIAPH2 / RFU, SKA2 / Fold change vs veh, SKA2 / RFU, AFF3 / Fold change vs veh, AFF3 / RFU, LMF1 / Fold change vs veh, LMF1 / RFU, IPO11 / Fold change vs veh, IPO11 / RFU, DFFB / Fold change vs veh, DFFB / RFU, FOXP1 / Fold change vs veh, FOXP1 / RFU, CARD8 / Fold change vs veh, CARD8 / RFU, STRN3 / Fold change vs veh, STRN3 / RFU, ADK / Fold change vs veh, ADK / RFU, RASSF2 / Fold change vs veh, RASSF2 / RFU, WIPF1 / Fold change vs veh, WIPF1 / RFU, LARP1B / Fold change vs veh, LARP1B / RFU, RASA1 / Fold change vs veh, RASA1 / RFU, RB1 / Fold change vs veh, RB1 / RFU, PPFIA1 / Fold change vs veh, PPFIA1 / RFU, MAT2A / Fold change vs veh, MAT2A / RFU, CCT5 / Fold change vs veh, CCT5 / RFU, WDR92 / Fold change vs veh, WDR92 / RFU, CUX1 / Fold change vs veh, CUX1 / RFU, TTC7A / Fold change vs veh, TTC7A / RFU, TMEM135 / Fold change vs veh, TMEM135 / RFU, DEPTOR / Fold change vs veh, DEPTOR / RFU, CPM / Fold change vs veh, CPM / RFU, DNAJB6 / Fold change vs veh, DNAJB6 / RFU, CACNA2D3 / Fold change vs veh, CACNA2D3 / RFU, DTX4 / Fold change vs veh, DTX4 / RFU, TFCP2 / Fold change vs veh, TFCP2 / RFU, GMCL1 /// GMCL1P1 / Fold change vs veh, GMCL1 /// GMCL1P1 / RFU, AEBP2 / Fold change vs veh, AEBP2 / RFU, SNHG1 /// SNORD22 /// SNORD25 /// SNORD26 /// SNORD27 /// SNORD28 /// SNORD29 /// SNORD31 / Fold change vs veh, SNHG1 /// SNORD22 /// SNORD25 /// SNORD26 /// SNORD27 /// SNORD28 /// SNORD29 /// SNORD31 / Fold change (Aza/veh), C12orf56 (ProbeSet 11735607_a_at) / Fold change (ACY-1035/veh), C12orf56 (ProbeSet 11735607_a_at) / Fold change (Aza/veh), FGFR1OP (ProbeSet 11751329_s_at) / Fold change (ACY-1035/veh), FGFR1OP (ProbeSet 11751329_s_at) / Fold change (Aza/veh), VPS36 (ProbeSet 11739960_a_at) / Fold change (ACY-1035/veh), VPS36 (ProbeSet 11739960_a_at) / RFU SYPL1 (11715823_x_at) / Fold change /veh SYPL1 (11715823_x_at) / RFU IGFBP7 (11715501_s_at) / Fold change /veh IGFBP7 (11715501_s_at) / RFU REEP3 (11722064_at) / Fold change /veh REEP3 (11722064_at) / RFU IGLL1 (11728026_x_at) / Fold change /veh IGLL1 (11728026_x_at): dose or concentration left out as unconfirmed
Conditions: ProbeSet 11728676_at; LIST B

Nc1ncn([C@@H]2O[C@H](CO)[C@@H](O)[C@H]2O)c(=O)n1 [azacitidine]
Fold change vs veh, MED14: 0.97
